The text below walks through data of ChEMBL document CHEMBL1132737, “Oxygenated chalcones and bischalcones as potential antimalarial agents” (2000).

Holding throughout (assay type): functional
Experiment [1] relates to Plasmodium berghei. Briefly: Parasitaemia at day 19 after combination dose at 50 mg/kg/day with 15 mg/kg/day […] over 4 days.
For experiment [2], the system named is Plasmodium berghei. Briefly: In vivo activity at day 7 against chloroquine-sensitive Plasmodium berghei infected mice (Mus musculus) at 100 mg/kg intraperitoneal dose over 4 days.
Experiment [3] concerns Plasmodium berghei. Briefly: Parasitemia at day 13 after combination dose at 50 mg/kg/day with 15 mg/kg/day […] over 4 days.
The test system of experiment [4] is Plasmodium berghei. Briefly: Parasitaemia at day 5 after 50 mg/kg/day dose over 4 days.
In experiment [5] the test system is Plasmodium berghei. Briefly: Parasitemia at day 9 after 50 mg/kg/day dose over 4 days.
The test system of experiment [6] is Plasmodium berghei. Put plainly: Parasitaemia at day 11 after combination dose at 50 mg/kg/day with 15 mg/kg/day […] over 4 days.
Experiment [7] relates to Plasmodium berghei. Briefly: Parasitaemia at day 7 after combination dose at 50 mg/kg/day with 15 mg/kg/day […] over 4 days.
The subject of experiment [8] is Plasmodium berghei. Put plainly: Parasitaemia at day 13 after 50 mg/kg/day dose over 4 days.
The subject of experiment [9] is Plasmodium berghei. Put plainly: Parasitaemia at day 11 after 50 mg/kg/day dose over 4 days.
Experiment [10] has as its system Plasmodium berghei. Put plainly: Parasitemia at day 7 after 50 mg/kg/day dose over 4 days.
In experiment [11] the test system is Plasmodium berghei. Briefly: Parasitaemia at day 15 after combination dose at 50 mg/kg/day with 15 mg/kg/day […] over 4 days.
In experiment [12] the test system is Plasmodium berghei. Briefly: In vivo activity at day 9 against chloroquine-sensitive Plasmodium berghei infected mice (Mus musculus) at 100 mg/kg intraperitoneal dose over 4 days.
In experiment [13] the test system is Plasmodium berghei. Put plainly: Parasitemia at day 5 after combination dose at 50 mg/kg/day with 15 mg/kg/day […] over 4 days.
The test system of experiment [14] is Plasmodium berghei. Briefly: In vivo activity at day 5 against chloroquine-sensitive Plasmodium berghei infected mice (Mus musculus) at 100 mg/kg intraperitoneal dose over 4 days.
Experiment [15] relates to Plasmodium berghei. Briefly: Parasitaemia at day 9 after combination dose at 50 mg/kg/day with 15 mg/kg/day […] over 4 days.
In experiment [16] the test system is Plasmodium berghei. Put plainly: Parasitaemia at day 17 after combination dose at 50 mg/kg/day with 15 mg/kg/day […] over 4 days.
The test system of experiment [17] is Plasmodium berghei. Put plainly: In vivo activity after 11 days against chloroquine-sensitive Plasmodium berghei infected mice (Mus musculus) at 100 mg/kg intraperitoneal dose over 4 days.
Experiment [18] concerns Plasmodium berghei. Briefly: In vivo activity after 13 days against chloroquine-sensitive Plasmodium berghei infected mice (Mus musculus) at 100 mg/kg intraperitoneal dose over 4 days.
In experiment [19] the test system is Plasmodium berghei. Put plainly: Parasitemia at day 15 after 50 mg/kg/day dose over 4 days.
Experiment [20] deals with Plasmodium berghei. Put plainly: Parasitemia at day 17 after 50 mg/kg/day dose over 4 days.
Experiment [21] deals with Plasmodium berghei. Put plainly: In vivo activity after 15 days against chloroquine-sensitive Plasmodium berghei infected mice (Mus musculus) at 100 mg/kg intraperitoneal dose over 4 days.

As for `COc1ccc(/C=C/C(=O)c2ccc(OCOc3ccc(C(=O)/C=C/c4ccc(OC)c(OC)c4)cc3)cc2)cc1OC`, the Parasitaemia in experiment [1] is given as 22.6%; in experiment [2], 5.6%; in experiment [3], 1.4%; in experiment [4], 1.5%; in [5], 5.8%; in experiment [6], 0.8%. In addition, the Parasitaemia turned out to be 0% in experiment [7]; 14.3% in [8]; 10.2% in experiment [9]; 2.3% in experiment [10]; 4.4% in experiment [11]; 7.25% in [12]. Besides, the Parasitaemia in experiment [13] amounted to 0%; in experiment [14] it was 2.8%; in [15] it was 0.3%; in [16] it was 11.6%.

In the case of `COc1cccc(/C=C/C(=O)c2ccc(OCCCOc3ccc(C(=O)/C=C/c4cccc(OC)c4)cc3)cc2)c1`, the Parasitaemia is listed as 1.8% in [17]; 13% in [1]; 0.52% in experiment [2]; 4.6% in experiment [3]; 1.75% in experiment [4]; 1.81% in experiment [18]. For the same molecule, the Parasitaemia in [5] is reported as 4.2%; in experiment [6], 3%; in [7] it was 1.1%; in experiment [19] it was 13%; in experiment [8], 5.4%; in experiment [20], 19%. Also, the Parasitaemia amounted to 4.2% in [9]; 1.9% in experiment [10]; 7% in experiment [11]; 1% in [12]; 1.7% in experiment [21]; 0.08% in experiment [13]. For the same molecule, the Parasitaemia in [14] amounted to 0%; in experiment [15], 3%; in experiment [16], 9.5%.
